Among the data in patent US6479487B1, “6, 9-disubstituted 2-[trans-(4-aminocyclohexyl)amino] purines” (Aventis Pharmaceuticals Inc., priority 1998, dated 2002) are IC50 values, retold here.

Values joined by “and” are separate entries in the source; they are usually repeats but may differ in a detail not shown here. Identical values can stand only once. Counter-ions that a name gives are not always drawn. Like-named read-outs stand apart in the source and are kept apart here.

For experiment [1], the system named is A549. The experiment can be described thus: In vitro tumor cell proliferation, A549. Format: cell-based, human. The following applies: many values given with an undefined *, read-out: In vitro Tumor Cell Proliferation (IC50, μM) Lung A549. The essentials: (§1)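 Tumor cells were seeded overnight at 37° C, then exposed to drug diluted in culture medium for 3 days, refed with fresh drug-containing medium and kept 4 more days. Cells were fixed with 10% trichloroacetic acid and stained with 0.4% sulforhodamine B; alternatively, CyQUANT read proliferation after 3 days' drug exposure.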

Experiment [2] relates to PC-3. The experiment can be described thus: In vitro tumor cell proliferation, PC-3. In kind it is cell-based, human. As to conditions: many values given with an undefined *, read-out: In vitro Tumor Cell Proliferation (IC50, μM) Prostate PC-3. The essentials:
as §1

Experiment [3] deals with DMS-114. As to the kind of experiment: In vitro tumor cell proliferation, DMS-114. In kind it is cell-based, human. As to conditions: many values given with an undefined *, read-out: In vitro Tumor Cell Proliferation (IC50, μM) Lung DMS-114. The method, boiled down:
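Human small cell lung carcinoma DMS-114 cells plated overnight, then drug-treated for 3 days, medium and drug renewed, and incubated 4 more days. Growth read by sulforhodamine B staining after TCA fixation; alternatively by CyQUANT after 3 days' drug exposure and freezing at −80 °C.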

In experiment [4] the target is T1, cdk2/cyclin E (Homo sapiens, UniProt P24941).
T1 construct: made in house; host or cells: insect cells (baculovirus co-infection)
As to the kind of experiment: Cyclin-Dependent Kinase 2 Assay (cdk2/cyclin E, GST-Rb substrate). Format: biochemical. The following applies: recombinant cdk2/cyclin E, 10 μM ATP, 30 min at 30° C., several values in a cell = separate determinations, read-out: CDK-2 Inhibition IC50. As to the method:
Substrate: GST-Rb as described above for cdk4/cyclin D1
Assay conditions for cdk2/cyclin E were identical to those for cdk4/cyclin D1 including the substrate. The concentration of recombinant cdk2/cyclin E in the assay was 0.1 μg per 100 μl assay. Incubation was for 30 min at 30° C.

Experiment [5] has as its system MDA-MB-231. As to the kind of experiment: In vitro tumor cell proliferation, MDA-MB-231. In kind it is cell-based, human. The following applies: sulforhodamine B or CyQUANT assay, many values given with an undefined *, read-out: In vitro Tumor Cell Proliferation (IC50, μM) Breast MDA-MB-231. The essentials: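 Proliferation quantified by SRB staining of TCA-fixed cells after 3 days of drug plus 4 days with replenished drug, following overnight attachment at 37 °C.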

Experiment [6] has as its system Colo-205. As to the kind of experiment: In vitro tumor cell proliferation, Colo-205. In kind it is cell-based. The following applies: values given with an undefined *, read-out: In vitro Tumor Cell Proliferation (IC50, μM) Colon Colo-205. The method, boiled down: as §1
In experiment [7] the test system is DU145. As to the kind of experiment: In vitro tumor cell proliferation, DU145. In kind it is cell-based, human. As to conditions: many values given with an undefined *, read-out: In vitro Tumor Cell Proliferation (IC50, μM) Prostate DU145. The method, boiled down: as §1
Experiment [8] has as its system MDA-MB-435. As to the kind of experiment: In vitro tumor cell proliferation, MDA-MB-435. The following applies: values given with an undefined *, read-out: In vitro Tumor Cell Proliferation (IC50, μM) Breast MDA-MB-435. Format: cell-based. The essentials:
as §1

Experiment [9] deals with T2, cdk4/cyclin D1 (Homo sapiens, UniProt P11802).
T2 construct: made in house; host or cells: Sf9 insect cells (Bac-to-Bac baculovirus, pFastBac)
The experiment can be described thus: Cyclin-dependent Kinase 4 Assay (cdk4/cyclin D1, GST-Rb substrate). In kind it is biochemical. As to conditions: cdk4/cyclin D1 insect cell lysate, 10 μM ATP, 30 min at 37° C., several values = separate determinations, read-out: CDK4 Inhibition IC50. The method, boiled down:
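IC50 against cdk4 measured by scintillation counting of bead-bound GST-Rb (0.5 μg) after filtration and four TNEN washes. Reaction was 30 min at 37 °C in HEPES pH 7.5 buffer with 10 mM MgCl2 and 1 mM EGTA. Enzyme source was 0.1 μg Sf9 lysate coinfected with cdk4 and cyclin D1.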

Experiment [10] concerns HT-29. The experiment can be described thus: In vitro tumor cell proliferation, HT-29. In kind it is cell-based, human. As to conditions: many values given with an undefined *, read-out: In vitro Tumor Cell Proliferation (IC50, μM) Colon HT-29. The method, boiled down:
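Growth was quantified either with CyQUANT, plates frozen at −80° C after 3 days of drug, or by sulforhodamine B staining of TCA-fixed cells after 3 days of drug plus 4 days with fresh drug. Trypan blue-excluding HT-29 cells were plated overnight at 37° C before dosing.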

Setting [11] is: Homo sapiens, MDA-MB-231, MDA-MB-231.
The mark [12] stands for this setting: Homo sapiens, COLO 205, Colo-205.
Where [13] appears, read: Homo sapiens, MDA-MB-435, MDA-MB-435.

T2 sequence (P11802 whole entry): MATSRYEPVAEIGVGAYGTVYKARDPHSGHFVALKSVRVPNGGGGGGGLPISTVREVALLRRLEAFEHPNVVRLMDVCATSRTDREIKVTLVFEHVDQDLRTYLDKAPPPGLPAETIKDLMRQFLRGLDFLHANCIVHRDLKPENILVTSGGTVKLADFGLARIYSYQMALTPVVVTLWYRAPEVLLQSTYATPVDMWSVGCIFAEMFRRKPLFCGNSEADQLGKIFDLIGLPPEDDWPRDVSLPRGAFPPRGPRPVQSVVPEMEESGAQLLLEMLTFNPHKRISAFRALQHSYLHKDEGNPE
T2 sequence (P24385 whole entry partner): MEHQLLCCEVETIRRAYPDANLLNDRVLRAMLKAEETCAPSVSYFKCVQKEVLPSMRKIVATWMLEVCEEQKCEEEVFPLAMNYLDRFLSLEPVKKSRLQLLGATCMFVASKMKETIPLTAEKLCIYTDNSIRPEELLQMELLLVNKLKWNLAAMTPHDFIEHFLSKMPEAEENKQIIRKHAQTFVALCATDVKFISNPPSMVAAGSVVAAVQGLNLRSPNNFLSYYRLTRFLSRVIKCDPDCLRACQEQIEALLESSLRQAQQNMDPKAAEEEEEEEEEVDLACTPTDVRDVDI

For the compound `N[C@H]1CC[C@H](Nc2nc(Nc3cccc(F)c3)c3ncn(C4CCCC4)c3n2)CC1` [Example 21, 2-[Trans-(4-aminocyclohexyl)amino]-6-(3-fluorophenylamino)-9-cyclopentylpurine dihydrochloride], the IC50 in experiment [1] (A549, dihydrochloride) was determined as 1 µM; in experiment [1] (Homo sapiens, A549, A549), 0.6 µM; in [2] (Homo sapiens, PC-3, PC-3) it was 1.3 µM; in experiment [2] (PC-3, dihydrochloride) it was 0.7 µM; in experiment [3] (DMS-114, dihydrochloride), 0.7 µM; in experiment [3] (Homo sapiens, DMS-114, DMS-114), 1.1 µM. In addition, the IC50 in [4] is 0.082 µM and 0.08 µM; in experiment [5] (setting [11]), 1.3 µM; in [6] (Colo-205, dihydrochloride), 1.1 µM; in experiment [6] (setting [12]), 1.2 µM; in experiment [7] (DU145, dihydrochloride) it was 0.9 µM; in experiment [7] (Homo sapiens, DU-145, DU145) it was 0.7 µM. The IC50 in experiment [8] (setting [13]) was 1.9 µM; in experiment [8] (MDA-MB-435, dihydrochloride), 2.3 µM; in experiment [9], 0.23 µM and 0.97 µM; in experiment [10] (HT-29, dihydrochloride), 1.7 µM; in experiment [10] (Homo sapiens, HT-29, HT-29), 1.6 µM.
In the case of `CCCCCc1ccc(Nc2nc(N[C@H]3CC[C@H](N)CC3)nc3c2ncn3C2CCCC2)cc1` [Example 23, 2-[Trans-(4-aminocyclohexyl)amino]-6-[(4-pentyl)phenylamino]-9-cyclopentylpurine dihydrochloride], the IC50 in experiment [1] (A549, dihydrochloride) was 2.5 µM; in experiment [1] (Homo sapiens, A549, A549) it was 2.3 µM; in experiment [2] (Homo sapiens, PC-3, PC-3), 3.1 µM; in experiment [2] (PC-3, dihydrochloride), 2.7 µM and 2.5 µM and 2.2 µM; in experiment [3] (DMS-114, dihydrochloride), 2.1 µM; in experiment [3] (Homo sapiens, DMS-114, DMS-114), 2.6 µM. Also, the IC50 in experiment [4] was 2 µM and 0.95 µM and 0.76 µM; in experiment [5] (setting [11]), 2.7 µM; in experiment [5] (MDA-MB-231, dihydrochloride), 2.6 µM and 2.5 µM; in experiment [6] (Colo-205, dihydrochloride), 2.8 µM and 2.7 µM; in experiment [6] (setting [12]), 2.9 µM; in [7] (DU145, dihydrochloride), 3.2 µM and 3 µM. The IC50 in experiment [7] (Homo sapiens, DU-145, DU145) was 3.1 µM; in [8] (setting [13]) it was 3.1 µM; in experiment [8] (MDA-MB-435, dihydrochloride), 3.5 µM and 3 µM and 3.3 µM; in experiment [9], 4 µM; in [10] (HT-29, dihydrochloride) it was 2.4 µM and 2.3 µM; in experiment [10] (Homo sapiens, HT-29, HT-29), 2.5 µM.
With `COCCCCNc1nc(N[C@H]2CC[C@H](N)CC2)nc2c1ncn2C1CCCC1` [Example 29, 2-[Trans-(4-aminocyclohexyl)amino]-6-(4-methoxybutylamino)-9-cyclopentylpurine dihydrochloride], the IC50 in [1] (A549, dihydrochloride) came out at 2.6 µM; in experiment [1] (Homo sapiens, A549, A549), 2.9 µM; in experiment [2] (Homo sapiens, PC-3, PC-3), 3.2 µM; in [2] (PC-3, dihydrochloride), 3.5 µM; in [3] (DMS-114, dihydrochloride), 3.3 µM; in experiment [3] (Homo sapiens, DMS-114, DMS-114), 2.6 µM. The IC50 in [4] is 0.011 µM and 0.04 µM; in [5] (setting [11]), 4.2 µM; in experiment [5] (MDA-MB-231, dihydrochloride), 3.6 µM; in experiment [6] (Colo-205, dihydrochloride), 4.6 µM; in [6] (setting [12]) it was 2.8 µM; in experiment [7] (DU145, dihydrochloride), 2.9 µM. The IC50 is 3 µM in [7] (Homo sapiens, DU-145, DU145); 5.9 µM in experiment [8] (setting [13]); 6 µM in experiment [8] (MDA-MB-435, dihydrochloride); 1 µM and 0.71 µM in experiment [9]; 4.2 µM in [10] (HT-29, dihydrochloride); 4.4 µM in [10] (Homo sapiens, HT-29, HT-29).
For the compound `N[C@H]1CC[C@H](Nc2nc(NC3CCN(Cc4ccccc4)CC3)c3ncn(C4CCCC4)c3n2)CC1` [Example 33, 2-[Trans-(4-aminocyclohexyl)amino]-6-[4-(1-benzyl)piperidinylamino]-9-cyclopentylpurine trihydrochloride], the IC50 is 0.12 µM in [1] (Homo sapiens, A549, A549); 0.2 µM in experiment [2] (Homo sapiens, PC-3, PC-3); 0.18 µM in experiment [2] (PC-3, trihydrochloride); 0.13 µM in experiment [3] (DMS-114, trihydrochloride); 0.19 µM in [3] (Homo sapiens, DMS-114, DMS-114); 0.19 µM and 0.14 µM in experiment [4]. For the same compound, the IC50 came to 0.17 µM in experiment [5] (setting [11]); 0.21 µM in experiment [5] (MDA-MB-231, trihydrochloride); 0.18 µM in [6] (setting [12]); 0.15 µM in experiment [7] (Homo sapiens, DU-145, DU145); 0.26 µM in experiment [8] (setting [13]); 0.28 µM in experiment [8] (MDA-MB-435, trihydrochloride). The IC50 in experiment [9] amounted to 0.41 µM; in [10] (HT-29, trihydrochloride) it was 0.21 µM; in experiment [10] (Homo sapiens, HT-29, HT-29), 0.19 µM.
With `CCCCCCCCCCCCNc1nc(N[C@H]2CC[C@H](N)CC2)nc2c1ncn2C1CCCC1` [Example 36, 2-[Trans-(4-aminocyclohexyl)amino]-6-(dodecylamino)-9-cyclopentylpurine dihydrochloride], the IC50 came to 3.1 µM in [1] (A549, dihydrochloride); 5.6 µM in experiment [1] (Homo sapiens, A549, A549); 3.1 µM in experiment [2] (Homo sapiens, PC-3, PC-3); 3.8 µM in experiment [2] (PC-3, dihydrochloride); 3.1 µM in [3] (DMS-114, dihydrochloride); 3.6 µM in experiment [3] (Homo sapiens, DMS-114, DMS-114). For the same compound, the IC50 turned out to be 0.52 µM in experiment [4]; 3.2 µM in experiment [5] (setting [11]); 3.1 µM in [6] (setting [12]); 3.4 µM in [7] (DU145, dihydrochloride); 5.4 µM in [7] (Homo sapiens, DU-145, DU145); 4.2 µM in experiment [8] (setting [13]). The IC50 was 2.2 µM in experiment [8] (MDA-MB-435, dihydrochloride); 4.5 µM in experiment [9]; 4 µM in experiment [10] (Homo sapiens, HT-29, HT-29).
In the case of `COc1ccc(CNc2nc(N[C@H]3CC[C@H](N)CC3)nc3c2ncn3C(C)C)cc1` [Example 37, 2-[Trans-(4-aminocyclohexyl)amino]-6-[(4-methoxybenzyl)amino]-9-(2-propyl)purine dihydrochloride], the IC50 in [1] (Homo sapiens, A549, A549) was 1.3 µM; in [2] (Homo sapiens, PC-3, PC-3), 2.3 µM; in experiment [2] (PC-3, dihydrochloride), 2.8 µM and 2.5 µM; in [3] (DMS-114, dihydrochloride), 1.7 µM and 1.5 µM; in experiment [3] (Homo sapiens, DMS-114, DMS-114), 1.3 µM; in experiment [4] it was 0.69 µM. Also, the IC50 was 3 µM in experiment [5] (setting [11]); 1.6 µM and 1.3 µM in experiment [6] (Colo-205, dihydrochloride); 1.7 µM in experiment [6] (setting [12]); 2.6 µM and 3 µM in experiment [7] (DU145, dihydrochloride); 2.7 µM in experiment [7] (Homo sapiens, DU-145, DU145); 3.4 µM in [8] (setting [13]). Moreover, the IC50 is 3.2 µM and 2.7 µM in [8] (MDA-MB-435, dihydrochloride); 5.2 µM in [9]; 1.8 µM and 2.5 µM in [10] (HT-29, dihydrochloride); 3.2 µM in experiment [10] (Homo sapiens, HT-29, HT-29).
